pEC50: −log10 of the molar value. Like-named read-outs stand apart in the source and are kept apart here.
Key:
[1] = biological target: T1, TRPML1 (Homo sapiens, UniProt Q9GZU1); assay: Cellular TRPML1 assay (FLIPR TETRA, GCaMP6f calcium read-out); format: cell-based; conditions: HEK T-REx/GCaMP6f/TRPML1 cells; Ca2+ response over 300 s, normalized to ML-SA1 50 μM; Ca2+ free or Optimem condition not given; read-out: Ec50 (Activity of TRPML1 agonists)
T1 construct: expressed in transfected cells
Method in brief: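 HEK T-REx cells stably expressing TRPML1 and GCaMP6f, assayed 24 h after seeding in Ca2+-free Tyrode's (pH 7.4) or Opti-MEM. Compounds injected on FLIPR Tetra (0.5% DMSO) in dose-response from 100 μM (1:2) or 50 μM (1:3.16); fluorescence kinetics 300 s, referenced to 50 μM ML-SA1 stimulator control.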

[2] = tested on: autophagy reporter Rosella (LC3 tag) in HeK293 cell line; assay: Autophagy assay (reporter Rosella, imaging); format: cell-based; conditions: HeK293 cells stably expressing reporter Rosella, 18 hours incubation, reference Torin-1 1 μM as max signal, read-out: Secondary Assays Autophagy qAC50
Description: Buffers and Reagents • Tyrode's buffer with 2 mM Ca^2+ in-house solution (130 mM NaCl, 5 mM KCl, 2 mM CaCl2), 1 mM MgCl2, 5 mM NaHCO3, 20 mM HEPES in water at pH 7.4; sterile filtered) • DMSO (Sigma) • Bis-benzimide H 33342 trihydrochloride (Hoechst 33342; Sigma-Aldrich) • Reference molecule (agonist): Torin-1, (#4247, Tocris) stock 1.2 mM in DMSO, stored at −20° C.
Reporter of Autophagy and Cell Line
Reporter Rosella: a fluorescent-based chimera constitutes by two fluorescent proteins, Green and Red variants, acting as a bimodal indicator of pH. […] The reporter is fused to sequence for autophagosome localization (LC3 tag).
The reporter Rosella have been stably expressed in HeK293 cell line and used as read-out.
Experiments have been performed in 384 MTP poly-lysine coated well format. Cells have been seeded in 384-w at a density of 6000 cells/well in 25 μl/well complete growth medium without antibiotics. Twenty-four hours later, cells have been treated with compounds and incubated for further 18 hours. Then the cells have been imaged and assayed for the response to various compounds using the reporter for autophagy expressed in the cells as readout.
The experiments were performed in a 384-well format according to the following procedure: • 24 h after seeding, cells were incubated with compounds at the desired concentration, and with the reference molecule (agonist) Torin-1 at a top concentration of 1 μM (max signal), for 18 hours at 37° C. and 5% CO2. The final percentage of DMSO was 0.3% in all the conditions. • Then the culture medium was carefully removed to avoid cells detachment and to discard red phenol into the medium and that can interfere with the measurements. • Staining of the nuclei was obtained by incubating the cells with 8 μM/well of Hoechst 3342 in standard Tyrode's buffer for 20 min at RT • Then the cells were carefully washed two times with standard Tyrode's buffer • Finally, the samples were acquired by recording three fluorescence emission channels (green, red and blue) at 20× magnification and with at least 3-4 fields of view per well in an Operetta CLS microscope (PerkinElmer). • Image analysis was performed by using Harmony software (PerkinElmer). The image analysis involved the following steps: flat-field illumination correction, nuclei segmentation, cell segmentations and identification of vesicles/granules within the cytosol compartments and representing the autophagy vesicles. Measurements of signal intensity ratio (Green to Red) and number of autophagy vesicles per cells were used to obtain information on the effects of compounds on the autophagy flux. • Data from image analysis measurements were finally loaded and analyzed for normalization and fitting procedures in Genedata Screener© software.

T1 sequence (Q9GZU1 whole entry): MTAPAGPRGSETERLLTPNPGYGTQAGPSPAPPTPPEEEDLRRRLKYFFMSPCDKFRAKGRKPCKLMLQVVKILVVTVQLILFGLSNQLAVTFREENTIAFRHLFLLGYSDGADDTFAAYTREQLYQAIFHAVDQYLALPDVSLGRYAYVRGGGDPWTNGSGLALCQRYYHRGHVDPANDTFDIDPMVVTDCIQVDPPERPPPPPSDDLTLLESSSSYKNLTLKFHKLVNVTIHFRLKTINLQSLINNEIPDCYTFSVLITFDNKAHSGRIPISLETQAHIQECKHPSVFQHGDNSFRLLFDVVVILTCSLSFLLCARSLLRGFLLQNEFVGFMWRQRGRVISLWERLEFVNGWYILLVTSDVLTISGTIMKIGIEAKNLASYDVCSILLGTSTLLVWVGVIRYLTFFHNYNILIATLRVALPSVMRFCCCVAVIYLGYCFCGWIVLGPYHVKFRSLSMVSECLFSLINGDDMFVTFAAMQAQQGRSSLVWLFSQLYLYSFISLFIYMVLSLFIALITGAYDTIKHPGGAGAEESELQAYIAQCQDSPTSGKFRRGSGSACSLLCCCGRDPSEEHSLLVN

pEC50 [1] | SMILES | pEC50 ([2]; Homo sapiens) | pEC50 [2]
5.52 | COC1CCCN(c2ccccc2NS(=O)(=O)c2ccc(S(=O)(=O)N(C)C)cc2)CC1 (racemic) [Example 40, N1-(2-(4-methoxyazepan-1-yl)phenyl)-N4,N4-dimethylbenzene-1,4-disulfonamide] | 5.89 | –
5.47 | CCN(C(=O)c1ccc(S(=O)(=O)N(C)C)cc1)c1ccccc1N1CCN(C(=O)OC(C)(C)C)CC1 [Example 20, tert-butyl 4-(2-(4-(N,N-dimethylsulfamoyl)-N-ethylbenzamido)phenyl)piperazine-1-carboxylate] | 6.34 | –
5.46 | Cc1ccc(S(=O)(=O)Nc2ccccc2N2CCC(Oc3ccccn3)CC2)c(C)c1 [Example 65, 2,4-dimethyl-N-(2-(4-(pyridin-2-yloxy)piperidin-1-yl)phenyl)benzenesulfonamide] | 4.50 | –

Second part, the compound before the results:

SMILES | pEC50 [1] | pEC50 ([2]; Homo sapiens) | pEC50 [2]
CCc1ccc(S(=O)(=O)Nc2ccccc2N2CCC(C(=O)OC(C)(C)C)CC2)cc1 [Example 19, tert-butyl 1-(2-((4-ethylphenyl)sulfonamido)phenyl)piperidine-4-carboxylate] | 5.68 | 6.22 | –
CN(C)S(=O)(=O)c1ccc(S(=O)(=O)Nc2ccccc2N2CCC(F)(F)CC2)cc1 [Example 33, N4-[2-(4,4-difluoropiperidin-1-yl)phenyl]-N1,N1-dimethylbenzene-1,4-disulfonamide] | 4.97 | 5.89 | –
CC(C)N(C(=O)c1ccc(S(=O)(=O)N(C)C)cc1)c1ccccc1N1CCN(C(=O)OC(C)(C)C)CC1 [Example 46, tert-butyl 4-(2-(4-(N,N-dimethylsulfamoyl)-N-isopropylbenzamido)phenyl)piperazine-1-carboxylate] | 5.03 | 5.89 | –
Cc1cc(S(=O)(=O)Nc2ccccc2N2CCN(C(=O)OC(C)(C)C)CC2)c(C)o1 [Example 58, tert-butyl 4-(2-((2,5-dimethylfuran)-3-sulfonamido)phenyl)piperazine-1-carboxylate] | 5.64 | 4.65 | –
CCCOC1CCN(c2ccccc2NS(=O)(=O)c2cc(C)sc2C)CC1 [Example 68, 2,5-dimethyl-N-(2-(4-propoxypiperidin-1-yl)phenyl)thiophene-3-sulfonamide] | 5.34 | 4.82 | –
CC(C)N(C(=O)c1ccc(S(C)(=O)=O)cc1)c1ccccc1N1CCN(C(=O)OC(C)(C)C)CC1 [Example 96, tert-butyl 4-(2-(N-isopropyl-4-(methylsulfonyl)benzamrdo)phenyl)piperazine-1-carboxylate] | 5.14 | – | 4.95
Cc1nc(S(=O)(=O)Nc2ccccc2N2CCC(Oc3ccccn3)CC2)c(C)s1 [Example 99, 2,5-dimethyl-N-(2-(4-(pyridin-2-yloxy)piperidin-1-yl)phenyl)thiazole-4-sulfonamide] | 5.30 | 5.22 | –

— patent US20230010299A1, “HETEROCYCLIC TRPML1 AGONISTS” (LIBRA THERAPEUTICS, INC., priority 2019, published 2023)
